Here are results for 13 compounds from ChEMBL document CHEMBL1201862, “PubChem BioAssay data set” (2004).

Activity calls are given as the source filed them.

Experiment [1] can be described thus: HEK-293T cell viability reduction – luminescence, B-cell screen hits, cytotoxicity control for BCR NF-kB inhibitor project, dose response (AID 489021).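 Further: HEK-293T cells carrying an NF-kB luciferase reporter; cells exposed to compound for about 14 hours before viability readout.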 In kind it is functional, cell-based.
Experiment [2] is described as follows: luciferase reporter signal suppression in cells – H4 neuroglioma cells, luminescence, dose response (AID 1990). The experiment is classed as functional, cell-based.
A short description of experiment [3]: alpha-synuclein stem-loop luciferase translation blockers – H4 neuroglioma cells, luminescence, confirmation (AID 1988). The experiment is classed as functional, cell-based.
The nature of experiment [4]: Luminescence Cell-Based Dose Response HTS to Identify Inhibitors of 5'UTR Stem-Loop Driven Prion Protein mRNA Translation in H4 Neuroglioblastoma Cells. [Related pubchem assays: 1827 (Project Summary), 1813 (Primary HTS)]. In kind it is functional.
In experiment [5] the target is T1, Short transient receptor potential channel 4 (Mus musculus, UniProt Q9QUQ5).
T1 sequence (Q9QUQ5 whole entry): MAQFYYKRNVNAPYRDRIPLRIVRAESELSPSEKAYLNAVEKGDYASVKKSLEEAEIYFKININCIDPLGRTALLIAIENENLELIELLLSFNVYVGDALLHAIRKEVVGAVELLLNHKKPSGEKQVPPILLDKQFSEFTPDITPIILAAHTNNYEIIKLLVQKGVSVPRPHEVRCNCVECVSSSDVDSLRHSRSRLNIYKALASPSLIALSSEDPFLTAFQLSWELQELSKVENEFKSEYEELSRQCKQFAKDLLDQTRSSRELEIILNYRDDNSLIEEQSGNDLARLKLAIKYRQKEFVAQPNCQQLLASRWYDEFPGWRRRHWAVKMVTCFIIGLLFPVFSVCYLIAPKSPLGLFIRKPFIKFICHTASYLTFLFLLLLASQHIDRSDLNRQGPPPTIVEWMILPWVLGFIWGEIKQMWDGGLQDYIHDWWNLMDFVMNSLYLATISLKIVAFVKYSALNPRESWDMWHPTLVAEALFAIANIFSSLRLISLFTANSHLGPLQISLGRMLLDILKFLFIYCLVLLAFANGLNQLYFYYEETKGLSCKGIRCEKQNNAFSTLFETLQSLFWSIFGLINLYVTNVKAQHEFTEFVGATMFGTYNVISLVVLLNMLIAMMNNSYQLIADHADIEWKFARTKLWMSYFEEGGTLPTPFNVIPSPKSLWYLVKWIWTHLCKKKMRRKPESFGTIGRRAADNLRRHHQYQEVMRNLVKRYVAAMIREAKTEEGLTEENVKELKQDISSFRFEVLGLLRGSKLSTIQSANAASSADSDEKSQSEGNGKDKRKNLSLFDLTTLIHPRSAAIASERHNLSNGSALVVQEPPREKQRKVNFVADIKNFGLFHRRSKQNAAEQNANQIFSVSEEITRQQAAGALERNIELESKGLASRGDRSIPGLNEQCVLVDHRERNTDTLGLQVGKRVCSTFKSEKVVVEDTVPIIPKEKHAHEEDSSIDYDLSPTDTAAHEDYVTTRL
In words: block of DAMGO-driven TRPC4 calcium entry – cell-based, HEK293 TRPC4/mu-opioid, Fluo-4 calcium, dose response (AID 434942).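 Further: potency of inhibitors blocking the TRPC4 calcium response.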 The experiment is classed as functional.

Experiment [6] in a line: Trypanosoma cruzi growth suppression in host cells – NIH3T3 host cells, beta-gal luminescence, confirmation (AID 2044).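 Further: intracellular parasites grown in NIH/3T3 mouse fibroblasts as host cells; luminescent beta-galactosidase reporter signal from transgenic T. cruzi replicating inside host cells; inhibitors lower the luminescence signal.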 In kind it is functional, cell-based.
A short description of experiment [7]: NIH3T3 cell viability loss – ATP luminescence, mouse fibroblasts, counter-screen, dose response (AID 2010).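 Further: cells exposed to compound for about 90 hours before reading.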 The experiment is classed as functional, cell-based.
In experiment [8] the target is T2, Heat shock factor protein 1 (Mus musculus, UniProt P38532).
T2 sequence (P38532 whole entry): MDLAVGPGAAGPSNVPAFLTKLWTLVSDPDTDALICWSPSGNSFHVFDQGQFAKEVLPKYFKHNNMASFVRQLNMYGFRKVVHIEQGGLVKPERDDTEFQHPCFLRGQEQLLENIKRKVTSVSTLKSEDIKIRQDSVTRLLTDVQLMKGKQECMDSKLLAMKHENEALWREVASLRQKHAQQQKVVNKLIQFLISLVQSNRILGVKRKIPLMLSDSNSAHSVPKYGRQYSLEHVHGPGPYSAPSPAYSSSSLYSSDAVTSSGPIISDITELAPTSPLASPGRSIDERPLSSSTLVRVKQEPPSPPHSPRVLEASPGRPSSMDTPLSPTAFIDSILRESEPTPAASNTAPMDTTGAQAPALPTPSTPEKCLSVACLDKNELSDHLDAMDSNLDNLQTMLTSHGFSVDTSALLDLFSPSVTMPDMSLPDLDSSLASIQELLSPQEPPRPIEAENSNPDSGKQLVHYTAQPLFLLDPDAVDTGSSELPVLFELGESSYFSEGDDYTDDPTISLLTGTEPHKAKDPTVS
In words: decrease of HSF1-responsive luciferase luminescence – cell-based, NIH3T3, dose retest, confirmation (AID 2382).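 Further: NIH3T3 fibroblasts with HSF1-driven luciferase reporter stressed by proteasome inhibitor MG132; luminescence from HSF1-driven luciferase expression after 8 hours of MG132 stress.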 In kind it is functional.

Experiment [9] concerns the target T3, RNA-binding protein pos-1 (Caenorhabditis elegans, UniProt G5EF15).
T3 sequence (G5EF15 whole entry): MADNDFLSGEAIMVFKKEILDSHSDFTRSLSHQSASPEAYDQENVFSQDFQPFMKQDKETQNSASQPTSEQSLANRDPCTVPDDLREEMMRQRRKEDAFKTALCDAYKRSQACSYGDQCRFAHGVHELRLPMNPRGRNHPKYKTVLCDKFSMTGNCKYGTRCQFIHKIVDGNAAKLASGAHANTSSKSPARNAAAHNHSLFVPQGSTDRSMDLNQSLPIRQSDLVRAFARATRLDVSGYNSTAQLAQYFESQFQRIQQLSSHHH
In words: disruptors of C. elegans POS-1 RNA interaction – biochemical, fluorescence polarization, dose response (AID 1964).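 Further: purified POS-1 fused to maltose binding protein made in E. coli; potency of compounds blocking POS-1 binding to fluorescent RNA.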

Experiment [10] deals with T4, Zinc finger protein mex-5 (Caenorhabditis elegans, UniProt Q9XUB2).
T4 sequence (Q9XUB2 whole entry): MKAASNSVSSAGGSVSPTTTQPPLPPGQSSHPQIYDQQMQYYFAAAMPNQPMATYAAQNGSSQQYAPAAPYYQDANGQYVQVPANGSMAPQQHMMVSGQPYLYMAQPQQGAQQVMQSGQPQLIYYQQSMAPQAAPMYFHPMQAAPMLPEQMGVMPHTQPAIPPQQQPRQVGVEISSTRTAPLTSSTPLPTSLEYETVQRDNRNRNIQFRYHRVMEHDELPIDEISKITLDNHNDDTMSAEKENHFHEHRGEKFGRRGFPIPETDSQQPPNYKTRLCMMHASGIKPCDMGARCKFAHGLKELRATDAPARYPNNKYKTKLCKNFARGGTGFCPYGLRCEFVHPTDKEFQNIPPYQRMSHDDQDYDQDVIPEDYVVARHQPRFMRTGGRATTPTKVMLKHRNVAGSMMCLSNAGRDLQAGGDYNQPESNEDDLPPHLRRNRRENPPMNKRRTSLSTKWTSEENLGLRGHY
In words: potency of MEX-5 RNA-binding blockers – biochemical, C. elegans, fluorescence polarization, dose response (AID 1960).

A further experiment deals with T5, Aminopeptidase N (Plasmodium falciparum FcB1/Columbia, UniProt O96935).
T5 sequence (O96935 whole entry): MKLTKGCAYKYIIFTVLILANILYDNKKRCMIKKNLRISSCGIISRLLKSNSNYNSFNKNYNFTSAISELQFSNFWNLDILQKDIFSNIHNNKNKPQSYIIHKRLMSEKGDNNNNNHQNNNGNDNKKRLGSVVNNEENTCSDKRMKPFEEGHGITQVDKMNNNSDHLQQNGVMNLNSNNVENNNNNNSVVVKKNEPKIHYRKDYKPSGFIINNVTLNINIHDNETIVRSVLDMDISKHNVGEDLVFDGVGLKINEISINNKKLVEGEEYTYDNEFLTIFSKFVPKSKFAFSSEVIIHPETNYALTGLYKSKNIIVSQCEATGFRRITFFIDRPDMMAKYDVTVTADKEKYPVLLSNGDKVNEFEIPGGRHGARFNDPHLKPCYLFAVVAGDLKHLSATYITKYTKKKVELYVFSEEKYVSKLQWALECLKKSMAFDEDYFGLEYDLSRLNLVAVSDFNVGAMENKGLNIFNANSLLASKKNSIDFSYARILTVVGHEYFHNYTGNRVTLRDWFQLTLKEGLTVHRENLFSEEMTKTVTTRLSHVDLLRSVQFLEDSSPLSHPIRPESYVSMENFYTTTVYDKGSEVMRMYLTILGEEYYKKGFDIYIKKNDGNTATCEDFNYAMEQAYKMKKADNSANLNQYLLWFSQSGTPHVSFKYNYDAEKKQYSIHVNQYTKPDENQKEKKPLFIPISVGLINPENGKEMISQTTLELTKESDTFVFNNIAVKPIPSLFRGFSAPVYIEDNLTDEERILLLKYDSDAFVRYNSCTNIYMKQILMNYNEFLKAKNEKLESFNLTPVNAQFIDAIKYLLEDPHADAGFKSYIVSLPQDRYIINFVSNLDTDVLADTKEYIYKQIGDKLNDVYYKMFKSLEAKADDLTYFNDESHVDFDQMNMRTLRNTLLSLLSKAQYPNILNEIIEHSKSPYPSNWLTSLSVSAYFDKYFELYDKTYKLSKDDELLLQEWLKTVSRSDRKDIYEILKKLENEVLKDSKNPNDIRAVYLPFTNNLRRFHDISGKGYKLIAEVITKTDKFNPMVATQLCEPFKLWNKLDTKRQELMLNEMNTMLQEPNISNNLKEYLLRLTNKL
In words: malaria alanyl aminopeptidase activity blockers – biochemical, fluorogenic H-Leu-NHMec substrate, 1536-well (AID 1445). Also on record: species or system Plasmodium falciparum 3D7, 3D7.

For experiment [11], the target named is T6, Ubiquitin-conjugating enzyme E2 N (Homo sapiens, UniProt P61088).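 Further: Dose-response confirmation in a TR-FRET assay detecting UBC13-driven polyubiquitin chain formation, inhibition measured.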
T6 sequence (P61088 whole entry): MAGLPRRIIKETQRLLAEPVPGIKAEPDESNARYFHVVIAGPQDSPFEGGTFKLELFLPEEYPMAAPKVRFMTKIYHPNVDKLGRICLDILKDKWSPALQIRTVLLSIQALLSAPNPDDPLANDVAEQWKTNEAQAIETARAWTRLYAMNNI
The experiment is classed as functional.

Experiment [12] is described as follows: NIH-3T3 fibroblast cytotoxicity, dose response, cytotoxicity control, cell-based, fluorescence, Alamar Blue, secondary assay (AID 2327).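 Further: NIH-3T3 mouse fibroblasts cultured with fluconazole at 8 µg/mL.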 The experiment is classed as functional.
Experiment [13] has as its target T7, Calpain-2 catalytic subunit (Sus scrofa, UniProt P43367).
T7 sequence (P43367 whole entry): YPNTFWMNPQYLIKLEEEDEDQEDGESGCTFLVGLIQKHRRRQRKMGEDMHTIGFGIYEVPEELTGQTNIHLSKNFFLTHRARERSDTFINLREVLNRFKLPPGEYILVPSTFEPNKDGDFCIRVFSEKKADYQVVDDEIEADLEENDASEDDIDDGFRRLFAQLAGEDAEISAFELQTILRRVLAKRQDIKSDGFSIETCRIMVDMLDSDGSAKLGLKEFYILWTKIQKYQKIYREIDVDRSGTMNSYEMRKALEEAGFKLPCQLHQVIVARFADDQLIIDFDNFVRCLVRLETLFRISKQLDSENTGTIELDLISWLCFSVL
In words: m-calpain protease blockers, concentration series – biochemical, fluorogenic peptide substrate, dose response (AID 1420). In kind it is functional.

The target of experiment [14] is T2, Heat shock factor protein 1. In words: enhancement of HSF1-driven luciferase signal – cell-based, NIH3T3, luminescence, dose retest, confirmation (AID 435004).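 Further: stress induced by proteasome inhibitor MG132 added 30 min after compound; luciferase reporter driven by HSF1 response element in NIH3T3 cells; actives raise luminescence as potentiators of the MG132 stress response.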 The experiment is classed as functional.

As to `Cc1cccc(C(=O)Nc2ccc(CC(=O)O)cc2)c1`, the IC50 in experiment [1] is > 80 µM (inactive). Moreover, the EC50 was 12.9 µM (active) in experiment [2], 28.5 µM (active) in experiment [3] and 16.9 µM (active) in experiment [4].
With `NC(=O)C1CCN(C(=O)COc2ccc3ccccc3c2Br)CC1`, the IC50 in experiment [1] was > 80 µM (inactive).
Turning to `Cc1cccc2cc(CN(CCCN(C)C)C(S)=NCCc3ccccc3)c(O)nc12`, the half-maximal effective concentration (EC50) is 4.22 µM (active) in experiment [5], 0.69 µM (active) in [6] and > 30 µM (not active) in [7].
Take `O=C(CCCc1nc(-c2ccccc2Cl)no1)NC1CCCC1`: in experiment [1], the IC50 is > 80 µM (inactive). Also, the EC50 in experiment [8] is > 195 µM (not active); in experiment [2] it was 0.822 µM (active); in [3], 0.606 µM (active); in experiment [4], 5.93 µM (active).
In the case of `C#Cc1ccc(CN2CCCC(C(=O)Nc3ccccc3Oc3cccnc3)C2)cc1` (stereo not drawn), in experiment [5], the concentration giving a half-maximal response (EC50) was 1.68 µM (active).
Same read-out and setting: to `O=C(COC(=O)c1c(Cl)cccc1Cl)Nc1ccccc1Br` belongs 1.33 µM (active); to `COc1ncnc2sc3c(c12)CCCC3`, 5.96 µM (active).
`CN1C(=O)S/C(=C/c2cccn2-c2cccc(C(=O)O)c2)C1=O`: the EC50 in experiment [9] and in experiment [10] was > 300 µM (not active) each time. The IC50 at Aminopeptidase N was 84.3 µM (active).
Turning to `O=C(CCCN1C(=O)/C(=C/c2ccccc2Cl)SC1=S)NNC(=O)c1ccc(Cl)cc1`, the IC50 in experiment [1] is > 80 µM (inactive); in [11], > 20 µM (inactive).
On to `Cc1c(CCOC(=O)CC23CC4CC(CC(C4)C2)C3)sc[n+]1Cc1ccccc1`, for which the EC50 in experiment [5] is 5.96 µM (active); in experiment [12], > 160 µM (inactive).
Turning to `CCN(CC)c1ncnc2scc(C3COc4ccccc4O3)c12` (stereo not drawn), in experiment [5], the EC50 was 5.31 µM (active). In addition, the IC50 in [13] is 10.3 µM (not active).
As to `CC1CCN(CCCOc2ccc(OCc3ccccc3)cc2)CC1`, the EC50 in experiment [5] was 0.531 µM (active).
As for `COc1ccc(/C=C2\SC(=S)N(CCC(=O)Nc3cccc(O)c3)C2=O)cc1`, the IC50 in experiment [1] is > 80 µM (inactive). Also, in experiment [14], the EC50 was 58.8 µM (active).
